Data: patent US9642897B2, “Treatment of bone diseases” (THE UNIVERSITY OF SYDNEY, priority 2011, dated 2017)
“Also recorded” adds a separate entry of the source.

Assays:
RUNX2, OCN and OPN = test: Osteogenic gene expression (RUNX2, OCN, OPN) in differentiating MSC; format: cell-based, human; conditions: for relative gene expression of RUNX2, OCN and OPN: differentiating MSC
Description: (§1) Subsequently, the effect of chemical inhibition/stimulation of the intermediate and end products of kynurenine activation on osteogenic differentiating MSC was then characterised.
These compounds were added to the MSC media on day one of differentiation. […] Media was changed every three days. […]

[1] = system: gut-derived serotonin (GDS); conditions: Yadav et al. (2010); cited from earlier work
[2] = system: mesenchymal stem cells (MSC); test: Mineralization (alizarin red staining) of osteogenic differentiating MSC; format: cell-based, human
Description: (§2) Human mesenchymal stem cells (MSC) (BioWhittaker, Walkersville, Md., USA) were plated at a density of 5×10^5 cells per well in 150 cm^2 dishes containing MSC growth medium (GM) (BioWhittaker, Walkersville, Md., USA) with 10% fetal calf serum (FCS) and incubated at 37° C. After the cells reached 60% confluence, media was replaced with either GM or osteoblastogenesis induction media (OIM) (prepared with MSCGM, 10% FCS, […] dexamethasone, 10 mmol/L β glycerol phosphate and 50 μg/mL ascorbic acid) for 21 days. Media was changed every three days. Media obtained at the beginning of the 1st, 2nd and 3rd wk of differentiation as well as conditioned media were collected for measurement of IFNγ. Concentrations of IFNγ in the conditioned media were measured from both GM and OM treated cells using Human […] DuoSet ELISA Development Kit (R&D Systems, Minneapolis, Mich., USA). To compare between the osteogenic and the immune effect of IFNγ, Jurkat cells and human T lymphocytes were plated at a density of 5×10^5 cells per well in 150 cm^2 dishes containing RPMI media.
as §1
These compounds were added to the MSC media on day one of differentiation. Cells were treated for […]. Media was changed every three days. After three weeks of treatment, osteoblastogenesis and changes in osteogenic genes were quantified as described above.

[3] = system: bone marrow stromal cells (BMSC) from IDO-1 KO and WT mice; test: Osteogenic differentiation of BMSC from IDO-1 KO and WT mice (alizarin red); format: cell-based; conditions: vs vehicle
Description: One side tibiae from 9-month-old IDO-1^−/− and IDO-1^+/+ mice (n=6 per group) were flushed using a 21-gauge needle attached to a 10 ml syringe filled with Dulbecco's modified Eagle's medium (DME) (GIBCO BRL, Gaithersburg, Md., USA). The bone marrow cells were filtered through a cell strainer with a 70-micron nylon mesh (BD Bioscience, Bedford, Mass., USA) and plated in 10 cm^2 tissue culture dishes. The cells were incubated in growth medium at 37° C. with 5% humidified CO2 and isolated by their adherence to tissue culture plastic. Medium was aspirated and replaced with fresh medium every 2 to 3 days to remove non-adherent cells. The adherent MSC were grown to confluency for about 7 days and defined as MSC at passage 0, harvested with 0.25% trypsin and 1 mM EDTA for 5 min at 37° C., diluted 1:3 in growth medium, plated and grown to confluency for further expansion. After 2nd and 3rd passages, MSC were used for subsequent experiments.
To induce differentiation, a total of 10^4 cells were diluted in osteogenic medium and plated in 24 dishes per group in the presence or absence of either quinolinic or picolinic acid. Media was aspirated and replaced with fresh osteogenic medium every 3 days. At 21 days, medium was removed and cultures were fixed in 10% v/v formol/saline solution for 5 min. Cultures were stained with Alizarin Red, which was then extracted and quantified at 570 nm.

IDO-1 gene expression [4] = test: IDO-1 gene expression in osteogenic differentiating MSC (cDNA array / real time PCR); format: cell-based, human; conditions: for increase in IDO-1 expression: differentiating osteoblasts
Description: as §2
Cells were treated with either IFNγ (100 nM) or vehicle for two weeks. At week 2, total RNA was extracted from treated MSC, Jurkat T lymphocytes using an Easy-Kit mini prep (Qiagen, Valencia, Calif., USA). Generation of cDNA, fluorescent labeling, hybridization to the gene chip and data analysis were performed by the Genomics Laboratory at Ramacciotti Institute (Sydney, Australia). 12,000 human genes were examined and expressed sequences tags (ESTs) on the array Human Genome U95A (Affymetrix, Inc. Santa Clara, Calif., USA) and analyzed the results using the MicroDB™ Software (Affymetrix, Inc. Santa Clara, Calif., USA). Expression values of the differentiated and non-differentiated MSC and between MSC vs. Jurkat cells and T lymphocytes were compared using Student's t test. Genes with significant changes were then grouped depending on their known function. The biological function of each gene product was obtained from literature searches in medical databases. This experiment was repeated twice and significant changes in gene expression determined by the method of biological duplicates.
A cDNA gene array analysis was performed in MSC induced to differentiate into osteoblasts using osteogenic media for 7 days while being treated with an anabolic dose of IFNγ (100 nM) in vitro. A comparison of was made of cDNA data obtained from differentiating MSC, human primary T-lymphocytes and Jurkat cells either untreated or treated with IFNγ (FIG. 1). The aims of this approach were not only to characterise the osteogenic effect of IFNγ on osteogenic differentiating MSC, but also to compare the osteogenic vs. the immunogenic profile of IFNγ. […]

[5] = rats; cited from earlier work
TPH-1 gene expression = TPH-1 gene expression in IFNγ-treated immune cells (Jurkat cells, T lymphocytes); format: cell-based, human; conditions: immune cells treated with IFNγ
Description: as §2, with “To compare between the osteogenic and the immune effect of IFNγ, Jurkat cells and human T lymphocytes were plated at a density of 5×10^5 cells per well in 150 cm^2 dishes containing RPMI media.” left out
(§3) Cells were treated with either IFNγ (100 nM) or vehicle for two weeks. […] 12,000 human genes were examined and expressed sequences tags (ESTs) on the array Human Genome U95A (Affymetrix, Inc. Santa Clara, Calif., USA) and analyzed the results using the MicroDB™ Software (Affymetrix, Inc. Santa Clara, Calif., USA). […] This experiment was repeated twice and significant changes in gene expression determined by the method of biological duplicates. […]

IDO-1 gene expression [6] = test: IDO-1 gene expression in IFNγ-treated immune cells (Jurkat cells, T lymphocytes); format: cell-based, human; conditions: immune cells treated with IFNγ
Description: as §2, with “To compare between the osteogenic and the immune effect of IFNγ, Jurkat cells and human T lymphocytes were plated at a density of 5×10^5 cells per well in 150 cm^2 dishes containing RPMI media.” left out
as §3

IDO-1 [7] = test: Kynurenine/tryptophan ratio by HPLC in differentiating MSC; format: cell-based, human; conditions: MSC treated with IFNγ
serotonin = test: Serotonin concentrations in MSC supernatants (ELISA); format: cell-based, human; conditions: IFNγ treated vs untreated cells
Description: In addition, there was no difference in the serotonin concentrations (measured using ELISA) in the supernatants obtained from osteoblastogenesis induction media (OIM)- and IFNγ-treated vs. untreated cells. […] This effect is independent of serotonin concentration in the media.

IDO-1 [8] = test: Immunohistochemistry of IDO-1 in gut and bone of IFNγ-treated mice; format: in vivo, C57BL/6 mice; conditions: IFNγ 2,000 IU, 3 times a week for 6 weeks
Description: (§4) Animals were purchased from Jackson Laboratories (Bar Harbor, Me., USA). 8-week-old virgin female C57BL/6 mice (Charles River Laboratories, Quebec, Canada) were used to study the effect of exogenous administration of IFN-γ on bone and gut expression of IDO-1 and TPH-1. Bilateral ovariectomies (OVX) were performed under general anesthesia. Another group of animals was sham-operated (SHAM), in which ovaries were exteriorized but replaced intact. Two weeks after surgery, mice (OVX and SHAM) received intraperitoneal injections of 2000 IU of IFN-γ (R&D Systems, Inc., Minneapolis, Minn., USA) or vehicle (PBS) three times weekly for a total of 6 weeks. Mice were housed in cages in a limited-access room. Animal husbandry adhered to Canadian Council on Animal Care Standards, and all protocols were approved by the McGill University Health Center Animal Care Utilization Committee. […]
(§5) For immunohistochemistry, gut and bone sections were incubated overnight at 4° C. with a goat polyclonal antibody IgG against either IDO-1 or TPH-1 (Santacruz Biotechnology Inc. Santa Cruz Calif., USA), Primary antibody was detected by incubation with an anti-goat IgG secondary antibody conjugated with horseradish peroxidase (1:300 in BSA 1%, Sigma-Aldrich, St. Louis, Mo., USA)]. […] Photographs were taken under an Olympus fluorescence microscope controlled by an IPLab system. […]

TPH-1 = test: Immunohistochemistry of TPH-1 in gut and bone of IFNγ-treated mice; format: in vivo, C57BL/6 mice; conditions: IFNγ 2,000 IU, 3 times a week for 6 weeks
Description: as §4, §5

gut derived serotonin = test: Gut derived serotonin (GDS) in gut of IFNγ-treated mice; format: in vivo, C57BL/6 mice; conditions: IFNγ 2,000 IU, 3 times a week for 6 weeks
Description: Animals were purchased from Jackson Laboratories (Bar Harbor, Me., USA). 8-week-old virgin female C57BL/6 mice (Charles River Laboratories, Quebec, Canada) were used to study the effect of exogenous administration of IFN-γ on bone and gut expression of IDO-1 and TPH-1. Bilateral ovariectomies (OVX) were performed under general anesthesia. Another group of animals was sham-operated (SHAM), in which ovaries were exteriorized but replaced intact. Two weeks after surgery, mice (OVX and SHAM) received intraperitoneal injections of 2000 IU of IFN-γ (R&D Systems, Inc., Minneapolis, Minn., USA) or vehicle (PBS) three times weekly for a total of 6 weeks. Mice were housed in cages in a limited-access room. Animal husbandry adhered to Canadian Council on Animal Care Standards, and all protocols were approved by the McGill University Health Center Animal Care Utilization Committee.
One side femur and proximal gut from each animal in each group was removed at the time of euthanization. Bone was fixed in 70% ethanol, dehydrated, and embedded undecalcified in methyl methacrylate (J-T Baker, Phillipsburg, N.J., USA). At 50-μm intervals, longitudinal sections 5- and 8-μm thick were cut using a Polycut-E microtome (Reichert-Jung Leica, Heerbrugg, Switzerland). Gut was fixed and embedded in paraffin for future analysis. Gut sections were obtained as described above.

[9] = 1000 nM quinolinic acid, 14 days, vs untreated cells

## Nc1ccccc1C(=O)CC(N)C(=O)O [L-kynurenine, 2-amino-4-(2-aminophenyl)-4-oxo-butanoic acid, reference compound]
RUNX2, OCN and OPN
  relative gene expression of RUNX2, OCN and OPN: not

## Nc1nc(OC(c2ccc(-c3cccc(F)c3)cc2)C(F)(F)F)cc(-c2ccc(C[C@H](N)C(=O)O)cc2)n1 (stereo partly shown) [LP533401]
[1]
  bone formation / osteoporosis in OVX mice: stimulates bone formation and recues OVX mice from osteoporosis

## O=C(O)c1cccnc1C(=O)O [QA, 2,3-Pyridinedicarboxylic acid]
[2]; MSC in OIM, 2 weeks
  osteoblastogenesis / mineralisation (alizarin red): accelerated mineralisation; also recorded: stimulate osteoblastogenesis
RUNX2, OCN and OPN; [9]
  relative expression (RE) RUNX2: 3 fold
  relative expression (RE) osteopontin: 6 fold
RUNX2, OCN and OPN
  relative gene expression of RUNX2, OCN and OPN: increased
[3]
  mineralisation (alizarin red staining): higher levels of mineralisation

## CN[C@H](Cc1c[nH]c2ccccc12)C(=O)O [methyl-D-tryptophan, reference compound]
IDO-1 gene expression [4]; day 14 of differentiation, in the presence of inhibitor, vs control
  RE of IDO-1: 0.02
[2]; inhibition of IDO-1
  mineralization measured by alizarin red: significant decrease
RUNX2, OCN and OPN; with IDO-1 inhibition
  osteogenic genes expression: reduced

## CC[C@H](C)[C@H](NC(=O)[C@H](CCC(=O)O)NC(=O)[C@H](CO)NC(=O)[C@@H](NC(=O)[C@@H](N)CO)C(C)C)C(=O)N[C@@H](CCC(N)=O)C(=O)N[C@@H](CC(C)C)C(=O)N[C@@H](CCSC)C(=O)N[C@@H](Cc1cnc[nH]1)C(=O)N[C@@H](CC(N)=O)C(=O)N[C@@H](CC(C)C)C(=O)NCC(=O)N[C@@H](CCCCN)C(=O)N[C@@H](Cc1cnc[nH]1)C(=O)N[C@@H](CC(C)C)C(=O)N[C@@H](CC(N)=O)C(=O)N[C@@H](CO)C(=O)N[C@@H](CCSC)C(=O)N[C@@H](CCC(=O)O)C(=O)N[C@@H](CCCN=C(N)N)C(=O)N[C@H](C(=O)N[C@@H](CCC(=O)O)C(=O)N[C@@H](Cc1c[nH]c2ccccc12)C(=O)N[C@@H](CC(C)C)C(=O)N[C@@H](CCCN=C(N)N)C(=O)N[C@@H](CCCCN)C(=O)N[C@@H](CCCCN)C(=O)N[C@@H](CC(C)C)C(=O)N[C@@H](CCC(N)=O)C(=O)N[C@@H](CC(=O)O)C(=O)N[C@H](C(=O)N[C@@H](Cc1cnc[nH]1)C(=O)N[C@@H](CC(N)=O)C(=O)N[C@@H](Cc1ccccc1)C(=O)O)C(C)C)C(C)C [teriparatide]
[5]
  tumour growth: cause malignant tumour growth (osteogenic carcinoma)

## IFNγ: interferon gamma, stimulator of IDO-1
IDO-1 gene expression [4]; IFNγ 100 nM, differentiating MSC in osteogenic media 7 days, vs untreated MSC and immune cells
  IDO-1 gene expression: 12 fold
IDO-1 gene expression [4]; 14th day
  increase in IDO-1 expression: 13 fold
IDO-1 gene expression [4]; after 7 days
  increase in IDO-1 expression: 36 fold
TPH-1 gene expression
  TPH-1 gene expression: high levels
IDO-1 gene expression [6]
  IDO-1 gene expression: without affecting
[2]; IFNγ 100 ng/ml, one week of osteogenic differentiation, vs vehicle
  mineralization (alizarin red staining): higher levels of mineralization
IDO-1 [7]
  kynurenine/tryptophan ratio (tryptophan degradation): higher kynurenine/tryptophan ratio
serotonin
  serotonin concentrations in the supernatants: No changes
IDO-1 [8]
  levels of IDO-1 in gut and bone marrow: higher levels of IDO-1
TPH-1
  expression of TPH-1 in gut and bone: remains unaltered
Gut derived serotonin
  GDS in the gut: remains unaltered
